The supplement of paper PMC10307832

Key:
Test in all cases: relative viability (nuclei count vs DMSO), 5 days (fraction); higher = more cells survive
LXF-289 = test system: LXF-289
Method in brief: (§1)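 Relative viability divides the nuclei count in treated wells by that in vehicle wells. Lung cancer cell lines were seeded in 1536-well plates, dosed by pin tool the next day, and fixed and stained after 5 days in one step with final 0.05% Triton X-100, 1% formaldehyde and 1 ug/ml Hoechst. Dosing was a single drug or a fixed anchor-drug dose plus five library-drug doses (not always all listed) in √10 steps, and values are medians of duplicate plates imaged at 4×.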

NCI-H2170 = test system: NCI-H2170
Method in brief: as §1

NCI-H1944 = test system: NCI-H1944
Method in brief: as §1

UMC-11 = test system: UMC-11
Method in brief: as §1

NCI-H1915 = test system: NCI-H1915
Method in brief: as §1

NCI-H1755 = test system: NCI-H1755
Method in brief: as §1

NCI-H1792 = test system: NCI-H1792
Method in brief: as §1

SK-LU-1 = test system: SK-LU-1
Method in brief: as §1

HCC-366 = test system: HCC-366
Method in brief: as §1

COR-L 105 = test system: COR-L 105
Method in brief: as §1

NCI-H1793 = test system: NCI-H1793
Method in brief: as §1

NCI-H358 = test system: NCI-H358
Method in brief: as §1

NCI-H2085 = test system: NCI-H2085
Method in brief: as §1

LC-2-ad = test system: LC-2-ad
Method in brief: as §1

EPLC-272H = test system: EPLC-272H
Method in brief: as §1

LU99A = test system: LU99A
Method in brief: as §1

HCC-78 = test system: HCC-78
Method in brief: as §1

SW 900 = test system: SW 900
Method in brief: as §1

A-427 = test system: A-427
Method in brief: as §1

NCI-H1975 = test system: NCI-H1975
Method in brief: as §1

LCLC-97TM1 = test system: LCLC-97TM1
Method in brief: as §1

HOP-62 = test system: HOP-62
Method in brief: as §1

NCI-H460 = test system: NCI-H460
Method in brief: as §1

Q: Which results are given for `CC1(C)CCC(c2ccc(Cl)cc2)=C(CN2CCN(c3ccc(C(=O)NS(=O)(=O)c4ccc(N[C@H](CCN5CCOCC5)CSc5ccccc5)c(S(=O)(=O)C(F)(F)F)c4)cc3)CC2)C1` [Navitoclax] + Nc1nc2[nH]cc(CCc3ccc(C(=O)N[C@@H](CCC(=O)O)C(=O)O)cc3)c2c(=O)[nH]1 [Pemetrexed] (partner 0.2 µM)?
A: relative viability (LXF-289; first compound 0.005 µM): 0.85; relative viability (LXF-289; first compound 0.01581 µM): 0.914; relative viability (LXF-289; first compound 0.05 µM): 0.865; relative viability (LXF-289; first compound 0.1581 µM): 0.926; relative viability (LXF-289; first compound 0.5 µM): 0.852; relative viability (NCI-H2170; first compound 0.005 µM): 0.292; relative viability (NCI-H2170; first compound 0.01581 µM): 0.272; relative viability (NCI-H2170; first compound 0.05 µM): 0.273; relative viability (NCI-H2170; first compound 0.1581 µM): 0.266; relative viability (NCI-H2170; first compound 0.5 µM): 0.254; relative viability (NCI-H1944; first compound 0.005 µM): 0.611; relative viability (NCI-H1944; first compound 0.01581 µM): 0.623; relative viability (NCI-H1944; first compound 0.1581 µM): 0.597; relative viability (NCI-H1944; first compound 0.5 µM): 0.534; relative viability (UMC-11; first compound 0.005 µM): 0.79; relative viability (UMC-11; first compound 0.01581 µM): 0.822; relative viability (UMC-11; first compound 0.05 µM): 0.821; relative viability (UMC-11; first compound 0.1581 µM): 0.759; relative viability (UMC-11; first compound 0.5 µM): 0.444; relative viability (NCI-H1915; first compound 0.005 µM): 0.495; relative viability (NCI-H1915; first compound 0.01581 µM): 0.504; relative viability (NCI-H1915; first compound 0.05 µM): 0.571; relative viability (NCI-H1915; first compound 0.1581 µM): 0.439; relative viability (NCI-H1915; first compound 0.5 µM): 0.401; relative viability (NCI-H1755; first compound 0.005 µM): 0.371; relative viability (NCI-H1755; first compound 0.01581 µM): 0.419; relative viability (NCI-H1755; first compound 0.05 µM): 0.426; relative viability (NCI-H1755; first compound 0.1581 µM): 0.351; relative viability (NCI-H1755; first compound 0.5 µM): 0.433; relative viability (NCI-H1792; first compound 0.005 µM): 0.917; relative viability (NCI-H1792; first compound 0.01581 µM): 0.82; relative viability (NCI-H1792; first compound 0.1581 µM): 0.716; relative viability (NCI-H1792; first compound 0.5 µM): 0.738; relative viability (SK-LU-1; first compound 0.005 µM): 0.945; relative viability (SK-LU-1; first compound 0.01581 µM): 1.01; relative viability (SK-LU-1; first compound 0.05 µM): 0.967; relative viability (SK-LU-1; first compound 0.1581 µM): 0.947; relative viability (SK-LU-1; first compound 0.5 µM): 0.819; relative viability (HCC-366; first compound 0.005 µM): 0.136; relative viability (HCC-366; first compound 0.01581 µM): 0.167; relative viability (HCC-366; first compound 0.1581 µM): 0.175; relative viability (HCC-366; first compound 0.5 µM): 0.145; relative viability (COR-L 105; first compound 0.005 µM): 0.979; relative viability (COR-L 105; first compound 0.01581 µM): 1.35; relative viability (COR-L 105; first compound 0.05 µM): 0.921; relative viability (COR-L 105; first compound 0.1581 µM): 1.13; relative viability (COR-L 105; first compound 0.5 µM): 1.17; relative viability (NCI-H1793; first compound 0.005 µM): 0.72; relative viability (NCI-H1793; first compound 0.01581 µM): 1.09; relative viability (NCI-H1793; first compound 0.1581 µM): 0.828; relative viability (NCI-H1793; first compound 0.5 µM): 0.643; relative viability (NCI-H358; first compound 0.005 µM): 0.17; relative viability (NCI-H358; first compound 0.01581 µM): 0.173; relative viability (NCI-H358; first compound 0.05 µM): 0.167; relative viability (NCI-H358; first compound 0.1581 µM): 0.165; relative viability (NCI-H358; first compound 0.5 µM): 0.187; relative viability (NCI-H2085; first compound 0.005 µM): 0.812; relative viability (NCI-H2085; first compound 0.01581 µM): 1.2; relative viability (NCI-H2085; first compound 0.05 µM): 0.852; relative viability (NCI-H2085; first compound 0.1581 µM): 0.931; relative viability (NCI-H2085; first compound 0.5 µM): 0.894; relative viability (LC-2-ad; first compound 0.005 µM): 0.268; relative viability (LC-2-ad; first compound 0.01581 µM): 0.263; relative viability (LC-2-ad; first compound 0.05 µM): 0.284; relative viability (LC-2-ad; first compound 0.1581 µM): 0.295; relative viability (LC-2-ad; first compound 0.5 µM): 0.275; relative viability (EPLC-272H; first compound 0.005 µM): 0.312; relative viability (EPLC-272H; first compound 0.01581 µM): 0.268; relative viability (EPLC-272H; first compound 0.05 µM): 0.347; relative viability (EPLC-272H; first compound 0.1581 µM): 0.354; relative viability (EPLC-272H; first compound 0.5 µM): 0.343; relative viability (LU99A; first compound 0.005 µM): 0.202; relative viability (LU99A; first compound 0.01581 µM): 0.205; relative viability (LU99A; first compound 0.1581 µM): 0.196; relative viability (LU99A; first compound 0.5 µM): 0.167; relative viability (HCC-78; first compound 0.005 µM): 0.867; relative viability (HCC-78; first compound 0.01581 µM): 0.878; relative viability (HCC-78; first compound 0.05 µM): 0.921; relative viability (HCC-78; first compound 0.1581 µM): 0.875; relative viability (HCC-78; first compound 0.5 µM): 0.777; relative viability (SW 900; first compound 0.005 µM): 0.471; relative viability (SW 900; first compound 0.01581 µM): 0.476; relative viability (SW 900; first compound 0.1581 µM): 0.452; relative viability (SW 900; first compound 0.5 µM): 0.441; relative viability (A-427; first compound 0.005 µM): 1.01; relative viability (A-427; first compound 0.01581 µM): 0.896; relative viability (A-427; first compound 0.05 µM): 0.968; relative viability (A-427; first compound 0.1581 µM): 1.14; relative viability (A-427; first compound 0.5 µM): 1.04; relative viability (NCI-H1975; first compound 0.005 µM): 0.292; relative viability (NCI-H1975; first compound 0.01581 µM): 0.312; relative viability (NCI-H1975; first compound 0.05 µM): 0.343; relative viability (NCI-H1975; first compound 0.1581 µM): 0.301; relative viability (NCI-H1975; first compound 0.5 µM): 0.299; relative viability (LCLC-97TM1; first compound 0.005 µM): 0.182; relative viability (LCLC-97TM1; first compound 0.01581 µM): 0.191; relative viability (LCLC-97TM1; first compound 0.05 µM): 0.158; relative viability (LCLC-97TM1; first compound 0.1581 µM): 0.156; relative viability (LCLC-97TM1; first compound 0.5 µM): 0.204; relative viability (HOP-62; first compound 0.005 µM): 0.326; relative viability (HOP-62; first compound 0.01581 µM): 0.299; relative viability (HOP-62; first compound 0.05 µM): 0.323; relative viability (HOP-62; first compound 0.1581 µM): 0.27; relative viability (HOP-62; first compound 0.5 µM): 0.27; relative viability (NCI-H460; first compound 0.005 µM): 0.0632; relative viability (NCI-H460; first compound 0.01581 µM): 0.067; relative viability (NCI-H460; first compound 0.05 µM): 0.0532; relative viability (NCI-H460; first compound 0.1581 µM): 0.059; relative viability (NCI-H460; first compound 0.5 µM): 0.0583
